Test results as given in ChEMBL document CHEMBL5584353, “Design, Synthesis, and Biological Evaluation of Potent EZH2/LSD1 Dual Inhibitors for Prostate Cancer” (J Med Chem, 2024).
pIC50: −log10 of the molar value. Calls of active or inactive are those of the source. No cut-off for these calls is given here.

Experiments:
[1] = Half life in BALB/c mouse at 50 mg/kg,po measured upto 24 hrs by HPLC-MS/MS analysis; assay type: ADME, organism-based; conditions: in vivo
[2] = Half life in BALB/c mouse at 50 mg/kg,iv measured upto 24 hrs by HPLC-MS/MS analysis; assay type: ADME, organism-based; conditions: in vivo
[3] = Cytotoxicity against human HPNE cells incubated for 6 to 7 days by MTS assay; assay type: toxicity, cell-based; conditions: time 6-7 day
[4] = system: CWR22R; assay: Synergistic antitumor activity against human 22Rv1 cells xenografted in BALB/c mouse assessed as reduction in tumor growth at 80 mg/kg,ip administrated daily for 31 days in presence of enzalutamide relative to control; assay type: functional, organism-based; conditions: time 31.0 day
[5] = target: T1, Lysine-specific histone demethylase 1A (Homo sapiens, UniProt O60341); assay: Inhibition of LSD1 in human 22Rv1 cells assessed as upregulation of H3K9me2 expression at 1 to 5 uM incubated for 5 days by Western blotting analysis; assay type: cell-based; conditions: dose 1-5 µM, time 5.0 day
[6] = system: LNCaP; assay: Synergistic antiproliferative activity against human LNCaP cells assessed as inhibition of cell growth at 6.25 to 100 uM incubated for 6 to 7 days in presence of enzalutamide by MTS assay; assay type: functional, cell-based; conditions: dose 6.25-100 µM, time 6-7 day
[7] = system: CWR22R; assay: Induction of apoptosis in human 22Rv1 cells at 1 uM incubated for 5 days by Annexin V-FITC/PI staining based flow cytometric analysis (reference value: 8.97 %); assay type: functional; conditions: time 5 day
[8] = Tmax in BALB/c mouse at 50 mg/kg,ip measured upto 24 hrs by HPLC-MS/MS analysis; assay type: ADME, organism-based; conditions: in vivo
[9] = Clearance in BALB/c mouse at 50 mg/kg,ip measured upto 24 hrs by HPLC-MS/MS analysis; assay type: ADME, organism-based; conditions: in vivo
[10] = system: PC-3; assay: Induction of cell cycle arrest in human PC-3 cells assessed as accumulation of cells at G0/G1 phase incubated for 72 hrs by propidium iodide/RNase staining based flow cytometric analysis; assay type: functional
[11] = system: CWR22R; conditions: Homo sapiens, dose 80.0 mg/kg, route ip, time 31.0 day
[12] = target: T1, Lysine-specific histone demethylase 1A; assay: Inhibition of LSD1 in human LNCaP cells assessed as downregulation of AR-V7 expression at 1 to 20 uM incubated for 48 hrs by Western blotting analysis; assay type: cell-based; conditions: dose 1-20 µM
[13] = target: T1, Lysine-specific histone demethylase 1A; assay: Inhibition of LSD1 in human 22Rv1 cells assessed as downregulation of AR expression incubated for 48 hrs by Western blotting analysis; assay type: cell-based
[14] = system: PC-3; assay: Antiproliferative activity against human PC-3 cells assessed as inhibition of cell growth incubated for 6 to 7 days by MTS assay; assay type: functional, cell-based; conditions: time 6-7 day
[15] = system: CWR22R; assay: Antimigratory activity in human 22Rv1 cells assessed as upregulation of E-cadherin expression at 3 to 10 uM incubated for 48 hrs by Western blotting analysis; assay type: functional, cell-based; conditions: dose 3-10 µM
[16] = system: PC-3; assay: Antimigratory activity in human PC-3 cells assessed as downregulation of E-cadherin expression at 3 to 10 uM incubated for 48 hrs by Western blotting analysis; assay type: functional, cell-based; conditions: dose 3-10 µM
[17] = Metabolic stability in Sprague-Dawley rat hepatocyte assessed as compound remaining at 20 uM incubated for 60 mins by HPLC-MS/MS analysis; assay type: ADME, cell-based; conditions: hepatocytes, read-out: Stability
[18] = system: CWR22R; assay: Induction of apoptosis in human 22Rv1 cells at 10 uM incubated for 5 days by Annexin V-FITC/PI staining based flow cytometric analysis (reference value: 8.97 %); assay type: functional; conditions: time 5 day
[19] = target: T2, Histone-lysine N-methyltransferase EZH1 (Homo sapiens, UniProt Q92800); assay: Inhibition of EZH1 (unknown origin)
T2 sequence (Q92800 whole entry): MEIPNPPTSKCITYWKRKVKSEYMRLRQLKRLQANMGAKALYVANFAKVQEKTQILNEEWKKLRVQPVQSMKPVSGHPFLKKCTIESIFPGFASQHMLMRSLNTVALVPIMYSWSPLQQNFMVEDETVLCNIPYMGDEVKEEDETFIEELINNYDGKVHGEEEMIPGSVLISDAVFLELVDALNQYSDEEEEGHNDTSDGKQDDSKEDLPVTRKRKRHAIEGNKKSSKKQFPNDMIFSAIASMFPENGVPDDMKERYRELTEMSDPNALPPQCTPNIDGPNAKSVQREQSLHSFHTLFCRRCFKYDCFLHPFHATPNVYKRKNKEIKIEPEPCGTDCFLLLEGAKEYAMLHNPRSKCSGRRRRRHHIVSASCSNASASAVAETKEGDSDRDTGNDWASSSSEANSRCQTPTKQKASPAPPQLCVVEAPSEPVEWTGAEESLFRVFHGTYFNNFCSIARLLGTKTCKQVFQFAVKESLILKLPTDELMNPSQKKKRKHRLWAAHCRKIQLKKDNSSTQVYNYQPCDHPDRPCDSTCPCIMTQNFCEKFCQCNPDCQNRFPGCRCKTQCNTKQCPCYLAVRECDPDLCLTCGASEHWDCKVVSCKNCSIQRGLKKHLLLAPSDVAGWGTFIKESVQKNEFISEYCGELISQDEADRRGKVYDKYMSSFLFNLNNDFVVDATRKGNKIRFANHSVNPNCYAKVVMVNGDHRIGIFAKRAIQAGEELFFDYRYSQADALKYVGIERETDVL

[20] = target: T1, Lysine-specific histone demethylase 1A; assay: Inhibition of LSD1 in human PC-3 cells assessed as upregulation of H3K4me2 expression at 1 to 5 uM incubated for 5 days by Western blotting analysis; assay type: cell-based; conditions: dose 1-5 µM, time 5.0 day
[21] = system: PC-3; assay: Growth inhibition of human PC-3 cells incubated for 6 to 7 days by MTS assay; assay type: functional; conditions: time 6-7 day
[22] = AUC (0 to infinity) in BALB/c mouse at 50 mg/kg,iv measured upto 24 hrs by HPLC-MS/MS analysis; assay type: ADME, organism-based; conditions: in vivo
[23] = target: T3, Amine oxidase [flavin-containing] A (Homo sapiens, UniProt P21397); assay: Inhibition of MAO-A (unknown origin)
T3 sequence (P21397 whole entry): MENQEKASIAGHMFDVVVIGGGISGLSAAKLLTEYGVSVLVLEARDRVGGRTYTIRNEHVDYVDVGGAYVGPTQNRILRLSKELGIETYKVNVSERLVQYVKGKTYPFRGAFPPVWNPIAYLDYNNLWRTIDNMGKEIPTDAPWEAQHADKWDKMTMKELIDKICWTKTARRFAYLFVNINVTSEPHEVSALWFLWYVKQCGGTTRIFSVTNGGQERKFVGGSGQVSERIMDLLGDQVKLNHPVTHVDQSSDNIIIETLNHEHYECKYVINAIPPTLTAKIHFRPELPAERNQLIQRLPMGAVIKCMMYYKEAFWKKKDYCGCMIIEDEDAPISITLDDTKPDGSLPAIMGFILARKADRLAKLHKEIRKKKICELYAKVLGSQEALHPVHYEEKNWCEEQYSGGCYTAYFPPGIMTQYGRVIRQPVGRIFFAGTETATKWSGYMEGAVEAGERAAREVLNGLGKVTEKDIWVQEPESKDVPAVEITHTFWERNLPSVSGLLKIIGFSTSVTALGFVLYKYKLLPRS

[24] = Toxicity in BALB/c mouse xenografted with human 22Rv1 cells assessed as kidney morphological change at 80 mg/kg,ip administrated daily for 31 days; assay type: organism-based, CWR22R; conditions: in vivo, 744 h, time 31 day

CCN(c1cc(-c2ccc([C@@H]3C[C@H]3N(CC3CCOCC3)C(=O)OC(C)(C)C)cc2)cc(C(=O)NCc2c(C)cc(C)[nH]c2=O)c1C)C1CCOCC1 (racemic)
half-life [1]: 3.5 h
half-life [2]: 2.5 h
Activity [3]: Non-Toxic
Activity [4]: Active
inhibition [5]: Active
Activity [6]: Active
Activity [7]: 17.71%
Tmax [8]: 2 h
CL/F [9]: 8.33 mL/min/kg
Activity [10]: Dose-Dependent Effect
inhibition [11]: Active
inhibition [12]: Active
inhibition [13]: Dose-Dependent Effect
Activity [14]: Active
Activity [15]: Active
Activity [16]: Active
remaining at 1 h, 20 µM [17]: 84.3%
Activity [18]: 50.06%
pIC50 [19]: 5.67
inhibition [20]: Active
GI50 [21]: 1040 nM
AUC(0-inf) [22]: 126 µg·h/mL
pIC50 [23]: 5.81
Activity [24]: Non-Toxic
